{"source": "patent US20260345717A1", "about": "“COMPOSITION FOR PREVENTING, AMELIORATING, OR TREATING ALZHEIMER'S DISEASE COMPRISING GRAPEVINE STEM EXTRACT OR COMPOUND ISOLATED THEREFROM AS EFFECTIVE COMPONENT” (KOREA INSTITUTE OF ORIENTAL MEDICINE, priority 2022, published 2026)", "key": {"[1]": {"tested_on": "herpes simplex virus (HSV-1) in Vero cells", "test": "Antiviral effect: HSV-1 (GFP) infection of Vero cells, flow cytometry", "format": "cell-based", "conditions": "for inhibition at 10 µM / inhibition at 5 µM: Human alphaherpesvirus 1, Vero, 18 h, read-out: inhibition rate of virus replication; for antiviral effect compared with other components of the extract: FIG. 2", "protocol": "Vero cells were cultured in DMEM medium supplemented with 10% fetal bovine serum (FBS) and 1% penicillin/streptomycin. After culturing, the cells were infected with herpes simplex virus (HSV-1, 0.1 MOI) for 2 hours in DMEM medium supplemented with 1% penicillin/streptomycin. The infection solution was removed, the cells were washed with PBS and then treated with the samples from Preparation example 1 at different concentrations in DMEM supplemented with 10% FBS and 1% penicillin/streptomycin. The cells were subsequently cultured for 18 hours. Afterwards, the cells were recovered, fixed with 4% paraformaldehyde, washed with PBS, and GFP of the virus was quantified using flow cytometry. The cell infection rate was expressed as the infection rate compared to the group (Virus) that had not been treated with any sample.\nIn addition, the antiviral effect of the components contained in the grapevine stem extract obtained in Preparation example 2, i.e., vitisin A, &-viniferin, caraphenol A, betuin, cis-vitisin A, ampelopsin A, lupeol, vitisin B, malibatol A, viniferether B, lupenone, and resveratrol, was also determined by conducting experiments in the same manner as above."}, "[2]": {"tested_on": "U373-MG cells infected with herpes simplex virus (HSV-1)", "test": "Cell survival of HSV-1 infected U373-MG cells, MTT assay", "format": "cell-based, human", "conditions": "compared to untreated group (control), FIG. 5A; for viability at 10 µM: Homo sapiens, 18 h, read-out: cell survival rate", "protocol": "(§1) U373-MG cells, a human-derived glioblastoma, were cultured in RPMI1640 medium supplemented with 10% FBS (Fetal bovine serum) and 1% penicillin/streptomycin. After culturing, the cells were infected with herpes simplex virus (HSV-1, 0.1 MOI) in RPMI1640 medium supplemented with 1% penicillin/streptomycin. After 2 hours, the infection solution was removed. After washing with PBS, the cells were treated for 18 hours with a sample in RPMI1640 supplemented with 10% FBS and 1% penicillin/streptomycin. […] Cell survival rate was expressed as cell survival rate compared to the untreated group (control)."}, "tau protein (p-tau)": {"tested_on": "tau protein (p-tau)", "test": "Phosphorylation of tau protein (p-tau) in HSV-1 infected U373-MG cells, Western blot", "format": "cell-based, human", "conditions": "10 μM, FIGS. 10A and 10B", "protocol": "as §1\n(§2) The experiment was conducted in the same manner as the cell experiment in Example 3, but vitisin A, cis-vitisin A, and vitisin B isolated from grapevine stem extract were treated as test samples, and cell proteins were isolated to determine the expression of proteins that are related to dementia."}, "amyloid beta (Aβ1-42)": {"tested_on": "amyloid beta (Aβ1-42)", "test": "Amyloid beta (Aβ1-42) expression in HSV-1 infected U373-MG cells, Western blot", "format": "cell-based, human", "conditions": "10 μM, FIGS. 10A and 10B", "protocol": "as §1, §2"}, "[3]": {"tested_on": "gB protein of the herpes simplex virus", "test": "gB viral protein expression in HSV-1 infected U373-MG cells, Western blot", "format": "cell-based, herpes simplex virus (HSV-1)", "conditions": "10 μM, FIG. 5B, 1080 min"}, "[4]": {"tested_on": "herpes simplex virus protein VP16", "test": "VP16 viral protein expression in HSV-1 infected U373-MG cells", "format": "cell-based, herpes simplex virus (HSV-1)", "conditions": "concentration not restated"}, "[5]": {"tested_on": "herpes simplex virus protein ICP27", "test": "ICP27 viral protein expression in HSV-1 infected U373-MG cells", "format": "cell-based, herpes simplex virus (HSV-1)", "conditions": "concentration not restated"}}, "data": [{"compound": "Oc1ccc(-c2oc3cc(O)cc4c3c2-c2cc(O)cc3c2[C@H](c2cc(O)cc5c2[C@@H]4[C@H](c2ccc(O)cc2)O5)[C@@H](c2ccc(O)cc2)O3)cc1", "note": "[caraphenol A]", "values": [{"measurement": "inhibition at 10 µM", "setting": "[1]", "value": 41, "unit": "%"}]}, {"compound": "Oc1ccc([C@H]2c3c(O)cc(O)cc3[C@H]3c4c(cc(O)cc4[C@@H]2c2cc(/C=C/c4cc(O)cc5c4[C@H](c4cc(O)cc(O)c4)[C@@H](c4ccc(O)cc4)O5)ccc2O)O[C@@H]3c2ccc(O)cc2)cc1", "note": "[vitisin A]", "values": [{"measurement": "viability at 10 µM", "setting": "[2]", "value": 87, "unit": "%"}, {"measurement": "inhibition at 5 µM", "setting": "[1]", "value": 80, "unit": "%"}, {"measurement": "inhibition at 10 µM", "setting": "[1]", "value": 96, "unit": "%"}, {"measurement": "antiviral effect compared with other components of the extract", "setting": "[1]; Vero cells", "value": "best antiviral effect"}, {"measurement": "phosphorylation of tau protein (p-tau) compared to the virus-infected group", "setting": "tau protein (p-tau)", "value": "significantly reduced"}, {"measurement": "expression of amyloid beta (Aβ1-42) compared to the virus-infected group", "setting": "amyloid beta (Aβ1-42)", "value": "significantly reduced"}, {"measurement": "reduction of gB protein compared to the virus-infected group", "setting": "[3]", "value": 99, "unit": "%"}, {"measurement": "inhibition rate against VP16 compared to the virus-infected group", "setting": "[4]", "value": 100, "unit": "%"}, {"measurement": "inhibition rate against ICP27 compared to the virus-infected group", "setting": "[5]", "value": 93, "unit": "%"}]}, {"compound": "Oc1ccc(/C=C/c2cc(O)cc3c2C(c2cc(O)cc(O)c2)C(c2ccc(O)cc2)O3)cc1", "note": "(stereo not drawn) [ε-viniferin]", "values": [{"measurement": "inhibition at 10 µM", "setting": "[1]", "value": 42, "unit": "%"}]}, {"compound": "Oc1ccc([C@H]2c3c(O)cc(O)cc3[C@H]3c4c(cc(O)cc4[C@@H]2O)O[C@@H]3c2ccc(O)cc2)cc1", "note": "[amphelopsin A, ampelopsin A]", "values": [{"measurement": "inhibition at 10 µM", "setting": "[1]", "value": 54, "unit": "%"}]}, {"compound": "Oc1ccc([C@H]2Oc3cc(O)cc(/C=C/c4ccc5c(c4)[C@@H](c4cc(O)cc6c4[C@H](c4cc(O)cc(O)c4)[C@@H](c4ccc(O)cc4)O6)[C@H](c4ccc(O)cc4)O5)c3[C@@H]2c2cc(O)cc(O)c2)cc1", "note": "[vitisin B]", "values": [{"measurement": "viability at 10 µM", "setting": "[2]", "value": 76, "unit": "%"}, {"measurement": "inhibition at 5 µM", "setting": "[1]", "value": 80, "unit": "%"}, {"measurement": "inhibition at 10 µM", "setting": "[1]", "value": 76, "unit": "%"}, {"measurement": "antiviral effect compared with other components of the extract", "setting": "[1]; Vero cells", "value": "best antiviral effect"}, {"measurement": "reduction of gB protein compared to the virus-infected group", "setting": "[3]", "value": 66, "unit": "%"}]}, {"compound": "cis-vitisin A", "values": [{"measurement": "cell survival rate", "setting": "[2]; 10 μM, 1080 min", "value": 84, "unit": "%"}, {"measurement": "reduction of gB protein compared to the virus-infected group", "setting": "[3]", "value": 27, "unit": "%"}]}, {"compound": "Oc1ccc(C=Cc2cc(O)cc(O)c2)cc1", "note": "(single isomer, unassigned) [Resveratrol, resveratrol]", "values": [{"measurement": "inhibition of viral infection", "setting": "[1]; Vero cells, HSV-1 0.1 MOI, 18 hours, concentration not restated in this sentence", "value": 67, "unit": "%"}]}, {"compound": "C=C(C)[C@@H]1CC[C@]2(C)CC[C@]3(C)[C@H](CC[C@@H]4[C@@]5(C)CC[C@H](O)C(C)(C)[C@@H]5CC[C@]43C)[C@@H]12", "note": "(single isomer, unassigned) [lupeol]", "values": [{"measurement": "inhibition at 10 µM", "setting": "[1]", "value": 59, "unit": "%"}]}]}
